The source of these data is US7662593B2, “Activation method of protein derived from extremely thermophilic bacterium in nucleic acid amplification reaction and use thereof” (Aisin Seiki Kabushiki Kaisha, priority 2004, dated 2010).

Holding throughout (format): biochemical
In experiment [1] the target is T1, T. th. RecA (Thermus thermophilus, UniProt Q5SHB2).
T1 construct: made in house
T1 sequence (Q5SHB2 1-340): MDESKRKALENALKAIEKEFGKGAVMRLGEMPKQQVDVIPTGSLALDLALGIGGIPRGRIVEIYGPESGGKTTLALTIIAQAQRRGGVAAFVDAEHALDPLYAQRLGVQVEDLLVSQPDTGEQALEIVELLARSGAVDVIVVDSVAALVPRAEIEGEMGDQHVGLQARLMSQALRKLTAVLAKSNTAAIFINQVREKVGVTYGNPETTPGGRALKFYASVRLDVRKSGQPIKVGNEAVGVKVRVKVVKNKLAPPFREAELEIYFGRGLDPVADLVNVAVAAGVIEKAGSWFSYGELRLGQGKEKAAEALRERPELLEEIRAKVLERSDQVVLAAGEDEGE
As to the kind of experiment: PCR with T. th. DNA polymerase, combination of T. th. RecA with ATP (Example 7). The conditions noted are these: 35 cycles. The method, then: PCR amplification by the T. th. DNA polymerase was carried out using a human genome DNA as a template and Primer Set 1. Five kinds of PCR reaction solution were prepared as shown below. Specifically, Reaction solution R was prepared by adding T. th. RecA and ATP. Reaction solution S was prepared similarly to Reaction solution R except that ATP was not added. Reaction solution T was prepared similarly to Reaction solution R except that ATP and T. th. […] Reaction solution U was prepared similarly to Reaction solution R except that T. th. RecA and ATP were not added but a T. th. RecA storage buffer was added instead. Further, Reaction solution V was prepared similarly to Reaction solution R except that T. th. RecA was not added. The composition of each of the reaction solutions is as shown below.
(§1) The above reaction solutions were thermally denatured at 92° C. for 30 seconds. Then, amplification reaction was carried out with 35 cycles (1 cycle: at 94° C. for 15 seconds, at 55° C. for 30 seconds and at 68° C. for 90 seconds). Thereafter, the amplification reaction was completed by the final reaction cycle at 68° C. for 3 minutes and at 4° C. for 10 minutes. After the amplification, 10 μl of the reaction solution was subjected to electrophoresis with 1.2% agarose gel. […]

Experiment [2] deals with T1, T. th. RecA. As to the kind of experiment: PCR with Ex Taq-HS polymerase with T. th. RecA and ATP (Example 3). The note with it: 400 μM ATP plus 0.4 μg T. th. RecA, 36 cycles, Primer Sets 1-6 and 8, compared with no addition. As to the method: The PCR amplification reaction was carried out using a human genome DNA as a template and Primer Set 1. Two kinds of PCR reaction solutions were prepared as shown below. Specifically, Reaction solution G was prepared with a composition of a general PCR reaction solution without adding any of T. th. RecA and ATP (Control). Reaction solution H was prepared by adding T. th. RecA and ATP further to Reaction solution G. The composition of each of the reaction solutions is as shown below. As a DNA polymerase, an Ex Taq-HS polymerase was used.
(§2) The above reaction solutions were thermally denatured at 94° C. for 30 seconds. Thereafter, the amplification reaction was carried out with 36 cycles (1 cycle: at 94° C. for 15 seconds, at 55° C. for 30 seconds and at 72° C. for 90 seconds). Thereafter, the amplification reaction was completed by the final reaction cycle at 72° C. for 3 minutes and at 4° C. for 10 minutes. After the amplification, 10 μl of the reaction solution was subjected to electrophoresis with 1.2% agarose gel. After the electrophoresis, the bands were visualized by staining the gel with ethidium bromide, and then the electrophoresis gel was photographed. Furthermore, the same experiment was conducted using Primer Sets 2, 3, 4, 5, 6 and 8.

Experiment [3] addresses T1, T. th. RecA. As to the kind of experiment: PCR with rTaq-HS polymerase: influence of reaction solution composition on T. th. RecA performance, with and without ATP (Example 1). The conditions noted are these: 400 μM ATP plus 0.4 μg T. th. RecA, rTaq buffer, 35 cycles, human genome DNA, Primer Sets 1-6; compared with T. th. RecA only. The method, then:
The PCR amplification reaction was carried out using a human genome DNA as a template and Primer Set 1. Four kinds of PCR reaction solution were prepared as shown below. Specifically, Reaction solution A was prepared by using 1×rTaq buffer (manufactured by Takara Bio Inc.) as a buffer solution, and Reaction solution B was prepared by adding T. th. RecA further to Reaction solution A. Reaction solution C was prepared by using Taq buffer (manufactured by Takara Bio Inc.) as a buffer solution and adding T. th. RecA. Reaction solution D was prepared by adding T. th. RecA and ATP further to Reaction solution A. The composition of each of the reaction solutions is as shown below. As a DNA polymerase, an rTaq-HS polymerase (manufactured by Takara Bio Inc.) was used.
as §1, with “94°” for “92°”, “Thereafter, the” for “Then,”, “72°” for “68°”, “gel. After the electrophoresis, the bands were visualized by staining the gel with ethidium bromide, and then the electrophoresis gel was photographed.” for “gel.”

Experiment [4] deals with T1, T. th. RecA. As to the kind of experiment: PCR with rTaq-HS polymerase over 28, 32 or 36 cycles: decrease in T. th. RecA performance, with and without ATP (Example 2). The conditions noted are these: 400 μM ATP plus 0.4 μg T. th. RecA, Taq buffer, 28, 32 or 36 cycles, Primer Sets 7-9; compared with T. th. RecA only. The method, then:
The PCR amplification reaction was carried out using a human genome DNA as a template and Primer Set 7. Two kinds of PCR reaction solution were prepared as shown below. Specifically, Reaction solution E was prepared by adding T. th. RecA only. Reaction solution F was prepared by adding ATP in addition to T. th. RecA. The composition of each of the reaction solutions is as shown below. As a DNA polymerase, an rTaq-HS polymerase was used.
as §2, with “conducted in 28, 32 or” for “carried out with”, “seconds). And” for “seconds).”, “8” for “2, 3, 4, 5, 6”, “9.” for “8.”

In experiment [5] the target is T1, T. th. RecA. As to the kind of experiment: PCR with ExTaq-HS polymerase, effects of primer length, Primer Sets 10-15 (Example 5). The conditions noted are these: 0.4 mM ATP plus 0.4 μg T. th. RecA, 35 cycles, primer base length 20 to 45 (Primer Sets 10-15). As to the method:
The PCR amplification reaction was carried out using a human genome DNA as a template and the primer sets of various lengths. The primer sets used here were Primer Sets 10, 11, 12, 13, 14 and 15 with the base length of 20, 25, 30, 35, 40 and 45, respectively. Two kinds of PCR reaction solution were prepared as shown below. Specifically, Reaction solution P was prepared by adding T. th. RecA and ATP. Reaction solution Q was prepared similarly to Reaction solution P except that ATP was not added. The composition of each of the reaction solutions is as shown below. As a DNA polymerase, an ExTaq-HS polymerase (manufactured by Takara Bio Inc.) was used.
as §2, with “35” for “36”, “photographed.” for “photographed. Furthermore, the same experiment was conducted using Primer Sets 2, 3, 4, 5, 6 and 8.”

For experiment [6], the target named is T1, T. th. RecA. As to the kind of experiment: PCR with rTaq-HS polymerase with various nucleotide 5'-triphosphates and T. th. RecA (Example 4). The conditions noted are these: 36 cycles; for non-specific amplification in PCR (agarose gel): rTaq buffer. The method, then: The PCR amplification reaction was carried out using a human genome DNA as a template and Primer Set 1. Seven kinds of PCR reaction solution were prepared as shown below. Specifically, Reaction solution I was a general PCR reaction solution and prepared without adding any of T. th. RecA and nucleotide 5′-triphosphate (Control). Reaction solution J was prepared by adding T. th. RecA to Reaction solution I. Reaction solutions K, L, M and N were prepared by adding GTP, ATP, UTP and CTP to Reaction solution J, respectively. Reaction solution O was prepared by adding only ATP to Reaction solution I without adding T. th. RecA. The composition of each of the reaction solutions is as shown below. As a DNA polymerase, an rTaq-HS polymerase was used.
as §2

Experiment [7] addresses T1, T. th. RecA. As to the kind of experiment: PCR and multiplex PCR with T. th. DNA polymerase, T. th. RecA and ATP (Example 8). The conditions noted are these: 0.4 mM ATP plus 0.4 μg T. th. RecA. The method, then:
The PCR amplification reaction by the T. th. DNA polymerase was carried out using a human genome DNA as a template. The primer sets used herein were Primer Sets 22, 23, 24, 25, 26, 27, 28, 29, 30, 31, 32, 33, 1 and 2. In addition, multiplex PCR was carried out in which these primer sets were added in one reaction system and amplified. Two kinds of PCR reaction solution were prepared as shown below. Specifically, Reaction solution W was prepared by adding T. th. RecA and ATP. Reaction solution X was prepared similarly to Reaction solution W except that T. th. RecA and ATP were not added but a T. th. RecA storage buffer was added instead.
The above reaction solutions were thermally denatured at 92° C. for 30 seconds. Thereafter, the amplification reaction was carried out with 35 cycles (1 cycle: at 94° C. for 15 seconds, at 55° C. for 30 seconds and at 68° C. for 2 minutes). Thereafter, the amplification reaction was completed by the final reaction cycle at 68° C. for 3 minutes and at 4° C. for 10 minutes. After the amplification, 3 μl of the reaction solution was subjected to electrophoresis with 12.5% acrylamide gel. After the electrophoresis, the bands were visualized by staining the gel with cyber green, and then the electrophoresis gel was photographed.

For experiment [8], the target named is T1, T. th. RecA. As to the kind of experiment: PCR with ExTaq-HS polymerase, effects of primer length, Primer Sets 16-21 (Example 6). The conditions noted are these: 0.4 mM ATP plus 0.4 μg T. th. RecA, primer base length 20 to 45 (Primer Sets 16-21). The method, then: The PCR amplification reaction was carried out using a human genome DNA as a template and the primer sets of various lengths. The primer sets used here were Primer Sets 16, 17, 18, 19, 20 and 21 with the base lengths of 20, 25, 30, 35, 40 and 45. The same PCR reaction solutions as in Example 5 were used. Specifically, Reaction solution P was prepared by adding T. th. RecA and ATP. Reaction solution Q was prepared similarly to Reaction solution P except that ATP was not added. As a DNA polymerase, an ExTaq-HS polymerase (manufactured by Takara Bio Inc.) was used. Then, the PCR reaction was carried out under the same conditions as in Example 5, then electrophoresis and staining of the electrophoresed gel were conducted, and then photographing was conducted according to the same procedures as in Example 5.

With `Nc1ncnc2c1ncn2[C@@H]1O[C@H](COP(=O)(O)OP(=O)(O)OP(=O)(O)O)[C@@H](O)[C@H]1O` [ATP, adenosine 5′-triphosphate], the “non-specific amplification in PCR (agarose gel)” value at T. th. RecA [1] (0.4 mM ATP only, without T. th. RecA) is recorded as “production of non-specific amplification products was found”; on T. th. RecA [1] (0.4 mM ATP plus 0.4 μg T. th. RecA, Primer Sets 1-6 and 8) it was “non-specific amplification was remarkably suppressed”; on T. th. RecA [2], “non-specific amplification was suppressed”; on T. th. RecA [3], “non-specific amplification can be remarkably reduced”; at T. th. RecA [4] it was “non-specific amplification can be suppressed”; at T. th. RecA [5], “non-specific amplification can be remarkably reduced”. Also, the “non-specific amplification in PCR (agarose gel)” value at T. th. RecA [6] (400 μM ATP alone, without T. th. RecA, Lanes 43 to 49) was “non-specific amplification was not suppressed”; on T. th. RecA [6] (400 μM NTP plus 0.4 μg T. th. RecA, Primer Sets 1-6 and 8, compared with T. th. RecA only) it was “non-specific amplification can be suppressed”; at T. th. RecA [8], “non-specific amplification was remarkably suppressed”. Also, the “suppression of non-specific amplification, comparison among the NTP and T. th. RecA combinations” value at T. th. RecA [6] (400 μM GTP, ATP, UTP or CTP plus 0.4 μg T. th. RecA) is recorded as “suppressed non-specific amplification the most”. Also, on T. th. RecA [7] (35 cycles, single primer sets 22-33, 1 and 2 (Lanes 1 to 14)), the “non-specific amplification in PCR (acrylamide gel)” value is given as “non-specific amplification was remarkably suppressed”. The “specific amplification in multiplex PCR (acrylamide gel)” value at T. th. RecA [7] (all 14 primer sets in one reaction system (Lane 15)) is listed as “the target sequences corresponding to each of the primer sets were specifically amplified”.
